Measured values from patent publication EP0538248B1, “TETRAHYDROISOQUINOLINYLCARBAMATES OF 1,2,3,3A,8,8A-HEXAHYDRO-1,3A,8-TRIMETHYLPYRROLO [2,3-B]INDOLE” (priority 1990, dated 1992).
Read-outs that look alike come from different tables or passages of the source.

Key:
[1] = Stability on incubation with human plasma at 37°C; type: in vitro ADME; conditions: after 4 hours
anesthetized dog = test: Acute cardiovascular hemodynamic evaluation in the anesthetized dog; conditions: for CO: cardiac output; for HR: heart rate; for LVEDP: left ventricular end-diastolic pressure; for MAP: mean arterial blood pressure; for RAP: right atrial pressure
Method: (Details of test methods used for determining acute cardiovascular hemodynamic effects are presented following the Conclusion section).
(§1) Beagles of either sex are anesthetized with sodium thiopental 15 mg/kg + sodium barbital 200 mg/kg + 60 mg of sodium pentobarbital i.v. The trachea is intubated with a cuffed endotracheal tube and connected to a Harvard Respirator Pump set at 20 ml/stroke and 10 strokes/minute. The right femoral artery and vein are exposed and cannulated with polyethylene tubing for measurement of arterial blood pressure and i.v. administration of drugs, respectively. The duration of these experiments is two hours postdrug when drug is administered i.v. and three hours when administered i.d.
(§2) The arterial cannula is connected to a Statham P23Gb transducer. Left ventricular cardiac catheterization is accomplished by introducing a Millar microtip pressure transducer into the left carotid artery and advancing it to the left ventricle. The cannula is connected to a Millar TC-100 transducer control unit which is connected to a Beckman voltage/pressure pulse coupler. Ventricular pressure and its first derivative dP/dt are measured simultaneously by wiring the signal output from the left ventricular pressure tracing into a differentiator. […] The proximal lumen of this catheter is in the right atrium when the distal lumen and thermistor have been properly placed in the pulmonary artery. The signal outputs from the proximal and distal sites are connected to Statham P23BB transducers to measure right atrial pressure (RAP) and pulmonary artery pressure (PAP). Cardiac output is determined by injecting 5 ml of iced 5% dextrose in water into the proximal site (right atrium) and then measuring the temperature change in the pulmonary artery. Using the Stewart-Hamilton equation, the cardiac output can be determined by integrating the area under the thermodilution curve with an Edwards Cardiac Output Computer (model 9520). Heart rate is determined with a Beckman Cardiotach which sums the pressure waves from the pulse pressure curve of the arterial pressure. Lead II EKG is recorded. […] The measurement of these parameters provides information so that the following may be either measured directly or calculated: • 1. Mean Arterial Blood Pressure - MAP (mmHg) • 2. Heart Rate - HR • 3. Cardiac Output - CO (1/minute) • 4. Total Peripheral Resistance - TPR • 5. Cardiac Index - CI (CO/m^2) • 6. Stroke Volume - SV (ml/beat) • 7. Stroke Work - SW (gm-m/beat) • 8. Central Venous Pressure - CVP measured as right atrial pressure (RAP) mmHg or cmH2O. • 9. Left Ventricular End Diastolic Pressure - LVEDP (mmHg) • 10. Rate of Rise of Ventricular Pressure - dP/dt/Pmax This parameter is a better estimate of the contractile state of the myocardium that dP/ dt alone since the former is relatively independent of the loading conditions of the heart (sec^-1). • 11. Plumonary Artery Pressure - PAP (mmHg) • 12. Electrocardiogram - EKG

anesthetized dogs = test: Cardiovascular effects in anesthetized dogs during combined blockade of alpha and beta adrenergic receptors
Method: as §1
as §2, with “The signal outputs from the proximal and distal sites are connected to Statham P23BB transducers to measure right atrial pressure (RAP) and pulmonary artery pressure (PAP).” left out, “Mean Arterial Blood Pressure - MAP (mmHg) • 2. Heart Rate - HR • 3. Cardiac Output - CO (1/minute) • 4. Total Peripheral Resistance - TPR • 5. Cardiac Index - CI (CO/m^2) • 6. Stroke Volume - SV (ml/beat) • 7. Stroke Work - SW (gm-m/beat) • 8.” left out, “Left Ventricular End Diastolic Pressure - LVEDP (mmHg) • 10. Rate of Rise of Ventricular Pressure - dP/dt/Pmax This parameter is a better estimate of the contractile state of the myocardium that dP/ dt alone since the former is relatively independent of the loading conditions of the heart (sec^-1). • 11. Plumonary Artery Pressure - PAP (mmHg) • 12. Electrocardiogram - EKG” left out

[2] = Oral bioavailability studies (absorption, brain:plasma partition)
butyrylcholinesterase = butyrylcholinesterase (Homo sapiens, UniProt P06276); conditions: relative to physostigmine
rat brain AChE = target: T1, rat brain AChE (Rattus norvegicus, UniProt P37136)
T1 sequence (P37136 32-614): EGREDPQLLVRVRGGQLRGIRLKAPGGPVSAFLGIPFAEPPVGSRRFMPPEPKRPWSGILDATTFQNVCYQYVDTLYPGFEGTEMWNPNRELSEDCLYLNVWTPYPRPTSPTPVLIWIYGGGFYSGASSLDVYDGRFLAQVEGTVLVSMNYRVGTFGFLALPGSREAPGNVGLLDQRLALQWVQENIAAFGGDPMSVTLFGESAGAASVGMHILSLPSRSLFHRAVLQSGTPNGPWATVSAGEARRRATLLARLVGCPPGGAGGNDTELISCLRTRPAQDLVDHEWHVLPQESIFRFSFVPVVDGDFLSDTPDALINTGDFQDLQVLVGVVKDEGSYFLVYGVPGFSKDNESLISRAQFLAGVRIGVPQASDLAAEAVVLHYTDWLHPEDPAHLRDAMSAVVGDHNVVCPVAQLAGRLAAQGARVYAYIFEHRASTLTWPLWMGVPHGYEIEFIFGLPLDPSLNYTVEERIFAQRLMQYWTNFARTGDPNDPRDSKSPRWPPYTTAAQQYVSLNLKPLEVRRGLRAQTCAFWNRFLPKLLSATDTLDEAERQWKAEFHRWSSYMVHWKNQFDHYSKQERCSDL
Method: The method described below was used in this invention for assaying cholinesterase activity. This is a modification of the method of Ellman et al., Biochem. Pharmacol. 7, 98 (1961).
• A. Reagents - • 1. 0.05 M Phosphate buffer, pH 7.2 • (a) 6.85 g NaH2PO4•H2O/100 ml distilled H2O • (b) 13.40 g Na2HPO4•7H2O/100 ml distilled H2O • (c) add (a) to (b) until pH reaches 7.2 • (d) Dilute 1:10 • 2. Substrate in buffer • (a) 198 mg acetylthiocholine chloride (10 mM) • (b) q.s to 100 ml with 0.05 M phosphate buffer, pH 7.2 (reagent 1) • 3. DTNB in buffer • (a) 19.8 mg 5,5-dithiobisnitrobenzoic acid (DTNB) (0.5 mM) • (b) q.s. to 100 ml with 0.05 M phosphate buffer, pH 7.2 (reagent 1) • 4. A 2 mM stock solution of the test drug is made up in a suitable solvent and q.s. to volume with 0.5 mM DTNB (reagent 3). Drugs are serially diluted (1:10) such that the final concentration (in cuvette) is 10^-4 M and screened for activity. If active, IC50 values are determined from the inhibitory activity of subsequent concentrations. • B. Tissue Preparation- Male Wistar rats are decapitated, brains rapidly removed, copora striata disected free, weighed and homogenized in 19 volumes (approximately 7 mg protein/ml) of 0.05 M phosphate buffer, pH 7.2 using a Potter-Elvehjem homogenizer. A 25 microliter aliquot of the homogenate is added to 1.0 milliter vehicle or various concentrations of the test drug and preincubated for 10 minutes at 37°C. • C. Assay- Enzyme activity is measured with the Beckman DU-50 spectrophotometer. This method can be used for IC50 determinations and for measuring kinetic constants. Instruments Settings • Kinetics Soft-Pac Module #598273 (10) • Program #6 Kindata: • Source - Vis • Wavelength - 412 nm • Sipper - none • Cuvettes - 2 ml cuvettes using auto 6-sampler • Blank - 1 for each substrate concentration • Interval time - 15 seconds (15 or 30 seconds for kinetics) • Total time - 5 minutes (5 or 10 minutes for kinetics) • Plot - yes • Span - autoscale • Slope - increasing • Results - yes (gives slope) • Factor - 1
Reagents are added to the blank and sample cuvettes as follows: Blank: 0.8 ml Phosphate Buffer/DTNB 0.8 ml Buffer/Substrate Control: 0.8 ml Phosphate Buffer/DTNB/Enzyme 0.8 ml Phosphate Buffer/Substrate Drug: 0.8 ml Phosphate Buffer/DTNB/Drug/ Enzyme 0.8 ml Phosphate Buffer/Substrate Blank values are determined for each run to control for non-enzymatic hydrolysis of substrate and these values are automatically subtracted by the kindata program available on kinetics soft-pac module. This program also calculates the rate of absorbance change for each cuvette.
Substrate concentration is 10 mM diluted 1:2 in assay yielding final concentration of 5 mM.

[3] = tested on: [^3H]norepinephrine release; test: [3H]norepinephrine release in vitro; type: biochemical, Rat; conditions: Compound A at 100 µM
[4] = 0.01 mg/kg/min. i.v., anesthetized dog
[5] = 0.1 mg/kg/min. i.v., anesthetized dog
[6] = 0.01 mg/kg/min i.v. during alpha and beta receptor blockade

Sequence of butyrylcholinesterase (P06276 29-602): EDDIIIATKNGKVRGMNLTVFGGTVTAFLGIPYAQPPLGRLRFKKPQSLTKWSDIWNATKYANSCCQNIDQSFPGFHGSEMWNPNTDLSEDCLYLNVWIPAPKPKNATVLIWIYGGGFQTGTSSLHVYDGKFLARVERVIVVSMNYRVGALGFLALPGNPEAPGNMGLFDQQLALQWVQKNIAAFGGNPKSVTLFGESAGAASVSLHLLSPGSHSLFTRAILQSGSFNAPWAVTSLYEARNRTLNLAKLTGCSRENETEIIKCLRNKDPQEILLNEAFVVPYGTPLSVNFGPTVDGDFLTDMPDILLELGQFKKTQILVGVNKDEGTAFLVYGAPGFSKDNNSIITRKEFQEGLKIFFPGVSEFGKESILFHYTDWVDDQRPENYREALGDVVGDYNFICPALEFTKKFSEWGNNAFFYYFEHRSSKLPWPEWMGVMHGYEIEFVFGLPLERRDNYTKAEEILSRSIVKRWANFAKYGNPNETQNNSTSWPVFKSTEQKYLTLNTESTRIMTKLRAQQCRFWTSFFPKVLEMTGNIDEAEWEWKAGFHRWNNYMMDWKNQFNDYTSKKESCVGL

Row | Compound | compound remaining after incubation with human plasma [1] | TRP (anesthetized dog; [4]) [%] | dP/dT (anesthetized dog; [4]) | TRP (anesthetized dog; [5]) | dP/dT (anesthetized dog; [5]) | CO (anesthetized dog; [5]) | HR (anesthetized dog; [4]) [%] | HR (anesthetized dog; [5]) [%] | MAP (anesthetized dog; [4]) [%] | MAP (anesthetized dog; [5]) | oral absorption / bioavailability [2] | further results
1 | CNC(=O)Oc1ccc2c(c1)[C@]1(C)CCN(C)[C@@H]1N2C [physostigmine] | completely destroyed | -34 | -32% | -48% | -80% | -79% | -49 | -82 | -49 | -78% | so poorly bioavailable by the oral route that pharmacokinetic data was not available | mortality (anesthetized dog; 0.01 mg/kg/min i.v., intact alpha and beta adrenergic receptors): no mortality; ECG (anesthetized dog; [5]): A-V block inc. T wave; CO (anesthetized dog; [4]): -23%; LVEDP (anesthetized dog; [4]): +5mmHG; LVEDP (anesthetized dog; [5]): +8mmHG; RAP (anesthetized dog; [4]): +5mmHG; RAP (anesthetized dog; [5]): +8mmHG; mortality (dogs) (anesthetized dogs; [6]): 3 out of 3; time to mortality (anesthetized dogs; [6]): 17 to 29 min
2 | (3aS-cis)-1,2,3,3a,8,8a-hexahydro-1,3a,8-trimethylpyrrolo[2,3-b]indol-5-ol,(1,2,3,4-tetrahydroisoquinolinyl)carbamate [Compound A] | approximately 70% | -18 | +37% | +61% | +38% | +40% | -12 | -13 | -12 | +54% | rapidly absorbed orally | potency as an inhibitor of butyrylcholinesterase, times less potent than physostigmine (butyrylcholinesterase): approximately 34 times; accumulation effect on repeated administration (rat brain AChE; 20 mg/kg for four days in rats): no accumulation effect; inhibition of rat brain AChE ex vivo (rat brain AChE; 20 mg/kg, 4 hours after oral administration): significantly inhibitied; inhibition of rat brain AChE ex vivo (rat brain AChE; 20 mg/kg, 6 hours after oral administration): significantly inhibitied; inhibition of rat brain AChE ex vivo (rat brain AChE; 20 mg/kg, 24 hours after oral administration): not statistically significant; inhibition of rat brain AChE ex vivo (rat brain AChE; after oral administration): significant inhibition; [^3H]norepinephrine release in vitro [3]: stimulated; cardiac and hemodynamic effects (anesthetized dogs; 0.1 mg/kg/min i.v. during alpha and beta adrenergic blockade): moderate decreases in blood pressure and cardiac output
